Patent publication US20100152434A1, “Protein Kinase-binding Nucleosides and Associated Methods” (priority 2007, published 2010)
Like-named read-outs stand apart in the source and are kept apart here.

Key:
RPMI-8226 [1] = tested on: RPMI-8226
ACHN [2] = tested on: ACHN
NCI-H522 = experiment: cells; details: Homo sapiens
NCI-H226 = experiment: cells; details: Homo sapiens
MDA-MB-435 [3] = details: MDA-MB-435
A498 [4] = experiment: cells; details: Homo sapiens
UACC-257 = experiment: cells; details: Homo sapiens
MDA-MB-435 [5] = experiment: cells; details: Homo sapiens
HCT-116 [6] = experiment: cells; details: Homo sapiens
A498 [7] = tested on: A498
M14 = experiment: cells; details: Homo sapiens
HCT-116 [8] = tested on: HCT-116
A549/ATCC = experiment: cells; details: Homo sapiens
KM12 = experiment: cells; details: Homo sapiens
ACHN [9] = experiment: cells; details: Homo sapiens
HT29 = experiment: cells; details: Homo sapiens
RPMI-8226 [10] = experiment: cells; details: Homo sapiens

## CNC(=O)NC[C@H]1O[C@@H](n2cnc3c(NC(=O)Nc4ccccc4)ncnc32)[C@H](O[Si](C)(C)C(C)(C)C)[C@@H]1CC(=O)N(C)OC [Compound 13, 2′-O-(tert-Butyldimethylsilyl)-3′,5′-dideoxy-3′-[(N-methoxy-N-methylcarboxamido)methyl]-5′-[(N-methylcarbamoyl)amino]-N^6-(N-phenylcarbamoyl)adenosine]
RPMI-8226 [1]
  TGI: 5.40E−6 Molar
RPMI-8226 [1]; Log10 Concentration −4.0
  Percent Growth: −16%
RPMI-8226 [1]; Log10 Concentration −5.0
  Percent Growth: −25%
RPMI-8226 [1]; Log10 Concentration −6.0
  Percent Growth: 69%
RPMI-8226 [1]; Log10 Concentration −7.0
  Percent Growth: 91%
RPMI-8226 [1]; Log10 Concentration −8.0
  Percent Growth: 80%
UO-31
  TGI: >1.00E−4 Molar
UO-31; Log10 Concentration −4.0
  Percent Growth: 32%
UO-31; Log10 Concentration −5.0
  Percent Growth: 46%
UO-31; Log10 Concentration −6.0
  Percent Growth: 82%
UO-31; Log10 Concentration −7.0
  Percent Growth: 89%
UO-31; Log10 Concentration −8.0
  Percent Growth: 89%
ACHN [2]
  TGI: >1.00E−4 Molar
ACHN [2]; Log10 Concentration −4.0
  Percent Growth: 23%
ACHN [2]; Log10 Concentration −5.0
  Percent Growth: 55%
ACHN [2]; Log10 Concentration −6.0
  Percent Growth: 95%
ACHN [2]; Log10 Concentration −7.0
  Percent Growth: 102%
ACHN [2]; Log10 Concentration −8.0
  Percent Growth: 107%
T-47D
  TGI: >1.00E−4 Molar
T-47D; Log10 Concentration −4.0
  Percent Growth: 17%
T-47D; Log10 Concentration −5.0
  Percent Growth: 56%
T-47D; Log10 Concentration −6.0
  Percent Growth: 84%
T-47D; Log10 Concentration −7.0
  Percent Growth: 89%
T-47D; Log10 Concentration −8.0
  Percent Growth: 90%
COLO 205
  TGI: >1.00E−4 Molar
COLO 205; Log10 Concentration −4.0
  Percent Growth: 1%
COLO 205; Log10 Concentration −5.0
  Percent Growth: 55%
COLO 205; Log10 Concentration −6.0
  Percent Growth: 90%
COLO 205; Log10 Concentration −7.0
  Percent Growth: 93%
COLO 205; Log10 Concentration −8.0
  Percent Growth: 97%
NCI-H522; NCI-H522
  GI50: 11.1 µM
NCI-H522; NCI-H522, read-out: LC50
  CC50: > 100 µM
NCI-H226; NCI-H226
  GI50: 41.9 µM
NCI-H226; NCI-H226, read-out: LC50
  CC50: > 100 µM
BT-549
  TGI: >1.00E−4 Molar
BT-549; Log10 Concentration −4.0
  Percent Growth: 26%
BT-549; Log10 Concentration −5.0
  Percent Growth: 70%
BT-549; Log10 Concentration −6.0
  Percent Growth: 96%
BT-549; Log10 Concentration −7.0
  Percent Growth: 98%
BT-549; Log10 Concentration −8.0
  Percent Growth: 95%
OVCAR-5
  TGI: >1.00E−4 Molar
OVCAR-5; Log10 Concentration −4.0
  Percent Growth: 35%
OVCAR-5; Log10 Concentration −5.0
  Percent Growth: 71%
OVCAR-5; Log10 Concentration −6.0
  Percent Growth: 92%
OVCAR-5; Log10 Concentration −7.0
  Percent Growth: 98%
OVCAR-5; Log10 Concentration −8.0
  Percent Growth: 99%
MDA-MB-435 [3]
  TGI: >1.00E−4 Molar
MDA-MB-435 [3]; Log10 Concentration −4.0
  Percent Growth: 36%
MDA-MB-435 [3]; Log10 Concentration −5.0
  Percent Growth: 51%
MDA-MB-435 [3]; Log10 Concentration −6.0
  Percent Growth: 98%
MDA-MB-435 [3]; Log10 Concentration −7.0
  Percent Growth: 97%
MDA-MB-435 [3]; Log10 Concentration −8.0
  Percent Growth: 100%
A498 [4]; A498
  GI50: 3.87 µM
A498 [4]; A498, read-out: LC50
  CC50: > 100 µM
UACC-257; UACC-257
  GI50: 22.6 µM
UACC-257; UACC-257, read-out: LC50
  CC50: > 100 µM
MDA-MB-435 [5]; MDA-MB-435
  GI50: 10.9 µM
MDA-MB-435 [5]; MDA-MB-435, read-out: LC50
  CC50: > 100 µM
SNB-19
  TGI: >1.00E−4 Molar
SNB-19; Log10 Concentration −4.0
  Percent Growth: 51%
SNB-19; Log10 Concentration −5.0
  Percent Growth: 61%
SNB-19; Log10 Concentration −6.0
  Percent Growth: 83%
SNB-19; Log10 Concentration −7.0
  Percent Growth: 93%
SNB-19; Log10 Concentration −8.0
  Percent Growth: 94%
HCT-116 [6]; HCT-116
  GI50: 4.2 µM
HCT-116 [6]; HCT-116, read-out: LC50
  CC50: > 100 µM
A498 [7]
  TGI: 4.03E−5 Molar
A498 [7]; Log10 Concentration −4.0
  Percent Growth: −16%
A498 [7]; Log10 Concentration −5.0
  Percent Growth: 24%
A498 [7]; Log10 Concentration −6.0
  Percent Growth: 87%
A498 [7]; Log10 Concentration −7.0
  Percent Growth: 96%
A498 [7]; Log10 Concentration −8.0
  Percent Growth: 90%
MCF7
  TGI: >1.00E−4 Molar
MCF7; Log10 Concentration −5.0
  Percent Growth: 34%
MCF7; Log10 Concentration −6.0
  Percent Growth: 96%
MCF7; Log10 Concentration −7.0
  Percent Growth: 95%
MCF7; Log10 Concentration −8.0
  Percent Growth: 91%
M14; M14
  GI50: 15.2 µM
M14; M14, read-out: LC50
  CC50: > 100 µM
HCT-116 [8]
  TGI: >1.00E−4 Molar
HCT-116 [8]; Log10 Concentration −4.0
  Percent Growth: 6%
HCT-116 [8]; Log10 Concentration −5.0
  Percent Growth: 26%
HCT-116 [8]; Log10 Concentration −6.0
  Percent Growth: 89%
HCT-116 [8]; Log10 Concentration −7.0
  Percent Growth: 90%
HCT-116 [8]; Log10 Concentration −8.0
  Percent Growth: 93%
A549/ATCC; A549
  GI50: 9.35 µM
A549/ATCC; A549, read-out: LC50
  CC50: > 100 µM
KM12; KM12
  GI50: 23.9 µM
KM12; KM12, read-out: LC50
  CC50: > 100 µM
ACHN [9]
  GI50: 14.4 µM
ACHN [9]; read-out: LC50
  CC50: > 100 µM
SK-MEL-5
  TGI: >1.00E−4 Molar
SK-MEL-5; Log10 Concentration −4.0
  Percent Growth: 11%
SK-MEL-5; Log10 Concentration −5.0
  Percent Growth: 38%
SK-MEL-5; Log10 Concentration −6.0
  Percent Growth: 89%
SK-MEL-5; Log10 Concentration −7.0
  Percent Growth: 98%
SK-MEL-5; Log10 Concentration −8.0
  Percent Growth: 104%
HT29; HT-29
  GI50: 5.37 µM
HT29; HT-29, read-out: LC50
  CC50: > 100 µM
RPMI-8226 [10]; RPMI-8226
  GI50: 1.58 µM
RPMI-8226 [10]; RPMI-8226, read-out: LC50
  CC50: > 100 µM
TK-10
  TGI: >1.00E−4 Molar
TK-10; Log10 Concentration −4.0
  Percent Growth: 17%
TK-10; Log10 Concentration −5.0
  Percent Growth: 65%
TK-10; Log10 Concentration −6.0
  Percent Growth: 104%
TK-10; Log10 Concentration −7.0
  Percent Growth: 106%
TK-10; Log10 Concentration −8.0
  Percent Growth: 99%
